# Results: ChEMBL document CHEMBL1201861, “Genomics of Drug Sensitity in Cancer screening data, Wellcome Trust Sanger Institute”
# Legend:
# Experiment in all cases: cells
# [1] = system: SW 954; format: functional, cell-based, Homo sapiens; conditions: Homo sapiens, SW 954;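 also: growth inhibition of SW954 human cancer cells, read out as cell viability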
# Description: SANGER: Inhibition of human SW954 cell growth in a cell viability assay.
# [2] = system: ES5; format: functional, cell-based, Homo sapiens; conditions: Homo sapiens, ES5;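 also: growth inhibition of human ES5 cells, read out by a cell viability assay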
# [3] = system: HL-60; format: functional, cell-based; conditions: Homo sapiens;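 also: growth inhibition of human HL-60 cells, read out with a cell viability assay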
# Description: SANGER: Inhibition of human HL-60 cell growth in a cell viability assay.
# [4] = system: GR-ST; format: functional, cell-based; conditions: Homo sapiens
# Description: SANGER: Inhibition of human GR-ST cell growth in a cell viability assay.
# [5] = system: MOLT-16; format: functional, cell-based; conditions: Homo sapiens;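 also: growth inhibition of human MOLT-16 cells, read out with a cell viability assay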
# Description: SANGER: Inhibition of human MOLT-16 cell growth in a cell viability assay.
# [6] = system: NCI-H69; format: functional, cell-based; conditions: Homo sapiens;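 also: growth inhibition of the cell line, read out with a cell viability assay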
# Description: SANGER: Inhibition of human NCI-H69 cell growth in a cell viability assay.
# [7] = system: SW 962; format: functional, cell-based, Homo sapiens; conditions: Homo sapiens, SW 962;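 also: growth inhibition of human SW962 cells, read out by a cell viability assay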
# Description: SANGER: Inhibition of human SW962 cell growth in a cell viability assay.
# [8] = system: MHH-NB-11; format: functional, cell-based, Homo sapiens; conditions: Homo sapiens, MHH-NB-11;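 also: growth inhibition of human MHH-NB-11 cells, read out by a cell viability assay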
# Description: SANGER: Inhibition of human MHH-NB-11 cell growth in a cell viability assay.
# [9] = system: RH-1; format: functional, cell-based, Homo sapiens; conditions: Homo sapiens, RH-1;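 also: growth inhibition of human RH-1 cells, read out with a cell viability assay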
# [10] = system: TE-5; format: functional, cell-based, Homo sapiens; conditions: Homo sapiens, TE-5;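 also: inhibition of cell growth, read out by a cell viability assay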
# Description: SANGER: Inhibition of human TE-5 cell growth in a cell viability assay.
# [11] = system: KG-1; format: functional, cell-based; conditions: Homo sapiens;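 also: growth inhibition of KG-1 cells, read out by a cell viability assay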
# [12] = system: BB49-HNC; format: functional, cell-based, Homo sapiens; conditions: Homo sapiens, BB49-HNC;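 also: cell viability assay read-out, reported as inhibition of BB49-HNC cell growth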
# Description: SANGER: Inhibition of human BB49-HNC cell growth in a cell viability assay.
# [13] = system: RS4-11; format: functional, cell-based; conditions: Homo sapiens;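 also: growth inhibition of RS4-11 cells, read out by a cell viability assay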
# Description: SANGER: Inhibition of human RS4-11 cell growth in a cell viability assay.
# [14] = system: ML-2; format: functional, cell-based; conditions: Homo sapiens;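 also: growth inhibition of ML-2 cells, measured with a cell viability readout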
# Description: SANGER: Inhibition of human ML-2 cell growth in a cell viability assay.
# [15] = system: EW-11; format: functional, cell-based, Homo sapiens; conditions: Homo sapiens, EW-11;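 also: growth inhibition of human EW-11 cells, measured with a cell viability assay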
# Description: SANGER: Inhibition of human EW-11 cell growth in a cell viability assay.
# [16] = system: NCI-H1304; format: functional, cell-based; conditions: Homo sapiens;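 also: growth inhibition of the cancer cell line, measured in a cell viability assay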
# Description: SANGER: Inhibition of human NCI-H1304 cell growth in a cell viability assay.
# [17] = system: LB2518-MEL; format: functional, cell-based, Homo sapiens; conditions: Homo sapiens, LB2518-MEL;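 also: growth inhibition of human LB2518-MEL cells, measured with a cell viability assay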
# Description: SANGER: Inhibition of human LB2518-MEL cell growth in a cell viability assay.
# [18] = system: SK-N-FI; format: functional, cell-based, Homo sapiens; conditions: Homo sapiens, SK-N-FI;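 also: cell viability assay measuring growth inhibition of human SK-N-FI cells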
# Description: SANGER: Inhibition of human SK-N-FI cell growth in a cell viability assay.
# [19] = system: LB996-RCC; format: functional, cell-based; conditions: Homo sapiens
# Description: SANGER: Inhibition of human LB996-RCC cell growth in a cell viability assay.
# [20] = system: MOLT-4; format: functional, cell-based; conditions: Homo sapiens;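 also: growth inhibition of MOLT-4 cells, determined with a cell viability readout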
# Description: SANGER: Inhibition of human MOLT-4 cell growth in a cell viability assay.
# [21] = system: QIMR-WIL; format: functional, cell-based; conditions: Homo sapiens;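 also: growth inhibition of QIMR-WIL cells, read out with a cell viability assay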
# Description: SANGER: Inhibition of human QIMR-WIL cell growth in a cell viability assay.
# [22] = system: VA-ES-BJ; format: functional, cell-based, Homo sapiens; conditions: Homo sapiens, VA-ES-BJ;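 also: growth inhibition of the VA-ES-BJ cell line, read out by a cell viability assay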
# Description: SANGER: Inhibition of human VA-ES-BJ cell growth in a cell viability assay.
# [23] = system: EW-13; format: functional, cell-based; conditions: Homo sapiens;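 also: growth inhibition of EW-13 cells, read out with a cell viability assay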
# Description: SANGER: Inhibition of human EW-13 cell growth in a cell viability assay.
# [24] = system: OVCAR-4; format: functional, cell-based, Homo sapiens; conditions: Homo sapiens, OVCAR-4;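 also: growth inhibition of human OVCAR-4 cells, measured with a cell viability assay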
# Description: SANGER: Inhibition of human OVCAR-4 cell growth in a cell viability assay.
# [25] = system: D283 Med; format: functional, cell-based, Homo sapiens; conditions: Homo sapiens, D283 Med
# Description: SANGER: Inhibition of human D-283MED cell growth in a cell viability assay.
# [26] = system: GI-1; format: functional, cell-based, Homo sapiens; conditions: Homo sapiens, GI-1;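 also: growth inhibition of human GI-1 cells, measured with a cell viability readout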
# Description: SANGER: Inhibition of human GI-1 cell growth in a cell viability assay.
# [27] = system: IST-MEL1; format: functional, cell-based, Homo sapiens; conditions: Homo sapiens, IST-MEL1;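 also: growth inhibition of the cell line, read out with a cell viability assay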
# Description: SANGER: Inhibition of human IST-MEL1 cell growth in a cell viability assay.
# [28] = system: MFH-ino; format: functional, cell-based; conditions: Homo sapiens;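 also: growth inhibition of human MFH-ino cells, read out by a cell viability assay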
# Description: SANGER: Inhibition of human MFH-ino cell growth in a cell viability assay.
# [29] = system: KU812 cell line; format: functional, cell-based; conditions: Homo sapiens;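 also: growth inhibition of KU812 cells, read out with a cell viability assay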
# Description: SANGER: Inhibition of human KU812 cell growth in a cell viability assay.
# [30] = system: NB7; format: functional, cell-based; conditions: Homo sapiens;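 also: growth inhibition of NB7 cells, read out with a cell viability assay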
# Description: SANGER: Inhibition of human NB7 cell growth in a cell viability assay.
smiles,measurement,setting,value
CCC(=O)N1CCN(c2ccc(-n3c(=O)ccc4cnc5ccc(-c6cnc7ccccc7c6)cc5c43)cc2C(F)(F)F)CC1 [TORIN1],IC50,[1],37.9 nM
same,IC50,[2],> 1200 nM
same,IC50,[3],149 nM
same,IC50,[4],26.5 nM
same,IC50,[5],16.2 nM
same,IC50,[6],502 nM
same,IC50,[7],57.6 nM
same,IC50,[8],> 1200 nM
same,IC50,[9],280 nM
same,IC50,[10],38.5 nM
same,IC50,[11],> 1200 nM
same,IC50,[12],136 nM
same,IC50,[13],59.4 nM
same,IC50,[14],140 nM
same,IC50,[15],> 1200 nM
same,IC50,[16],> 1200 nM
same,IC50,[17],87 nM
same,IC50,[18],> 1200 nM
same,IC50,[19],11.4 nM
same,IC50,[20],66.1 nM
same,IC50,[21],80.6 nM
same,IC50,[22],9.84 nM
same,IC50,[23],> 1200 nM
same,IC50,[24],30.9 nM
same,IC50,[25],> 1200 nM
same,IC50,[26],24.7 nM
same,IC50,[27],17.7 nM
same,IC50,[28],28.1 nM
same,IC50,[29],13 nM
same,IC50,[30],> 1200 nM
Cc1cc(Nc2cc(N3CCN(C)CC3)nc(Sc3ccc(NC(=O)C4CC4)cc3)n2)n[nH]1 [TOZASERTIB],IC50,[1],122 nM
same,IC50,[2],> 2000 nM
same,IC50,[3],1070 nM
same,IC50,[4],> 2000 nM
same,IC50,[5],1350 nM
same,IC50,[6],> 2000 nM
same,IC50,[7],> 2000 nM
same,IC50,[8],> 2000 nM
same,IC50,[9],> 2000 nM
same,IC50,[10],> 2000 nM
same,IC50,[11],> 2000 nM
same,IC50,[12],> 2000 nM
same,IC50,[13],4.04 nM
same,IC50,[14],903 nM
same,IC50,[15],> 2000 nM
same,IC50,[16],1830 nM
same,IC50,[17],> 2000 nM
same,IC50,[18],> 2000 nM
same,IC50,[19],> 2000 nM
same,IC50,[20],233 nM
same,IC50,[21],427 nM
same,IC50,[22],201 nM
same,IC50,[23],> 2000 nM
same,IC50,[24],> 2000 nM
same,IC50,[25],> 2000 nM
same,IC50,[26],> 2000 nM
same,IC50,[27],> 2000 nM
same,IC50,[28],9.9 nM
same,IC50,[29],> 2000 nM
same,IC50,[30],> 2000 nM
